The record followed here is ChEMBL document CHEMBL4507317, “Data for DCP probe BAY-899” (2021).

Experiment [1] has as its target T1, Alpha-2A adrenergic receptor (Homo sapiens) (UniProt P08913).
T1 sequence (whole entry): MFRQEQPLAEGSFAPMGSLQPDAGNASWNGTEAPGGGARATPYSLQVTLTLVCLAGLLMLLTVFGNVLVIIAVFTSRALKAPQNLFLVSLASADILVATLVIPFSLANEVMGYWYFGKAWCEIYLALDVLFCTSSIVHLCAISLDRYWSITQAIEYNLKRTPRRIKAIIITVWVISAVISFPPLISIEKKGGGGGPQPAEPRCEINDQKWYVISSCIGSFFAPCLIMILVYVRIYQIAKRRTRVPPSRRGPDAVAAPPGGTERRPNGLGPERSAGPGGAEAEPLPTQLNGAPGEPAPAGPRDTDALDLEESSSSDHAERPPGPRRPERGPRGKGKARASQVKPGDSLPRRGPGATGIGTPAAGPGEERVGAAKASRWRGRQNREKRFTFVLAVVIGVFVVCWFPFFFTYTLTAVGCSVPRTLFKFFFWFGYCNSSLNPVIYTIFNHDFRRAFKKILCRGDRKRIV
The experiment can be described thus: alpha 2A Eurofins Bayer panel. To be noted: Compound concentration 10.0 uM.

Experiment [2] concerns Receptor-type tyrosine-protein kinase FLT3 (Homo sapiens), P36888 [K663Q]. To be noted: Compound concentration 1000.0 nM.
In experiment [3] the target is T2, 5-hydroxytryptamine receptor 1A (Homo sapiens) (UniProt P08908).
T2 sequence (whole entry): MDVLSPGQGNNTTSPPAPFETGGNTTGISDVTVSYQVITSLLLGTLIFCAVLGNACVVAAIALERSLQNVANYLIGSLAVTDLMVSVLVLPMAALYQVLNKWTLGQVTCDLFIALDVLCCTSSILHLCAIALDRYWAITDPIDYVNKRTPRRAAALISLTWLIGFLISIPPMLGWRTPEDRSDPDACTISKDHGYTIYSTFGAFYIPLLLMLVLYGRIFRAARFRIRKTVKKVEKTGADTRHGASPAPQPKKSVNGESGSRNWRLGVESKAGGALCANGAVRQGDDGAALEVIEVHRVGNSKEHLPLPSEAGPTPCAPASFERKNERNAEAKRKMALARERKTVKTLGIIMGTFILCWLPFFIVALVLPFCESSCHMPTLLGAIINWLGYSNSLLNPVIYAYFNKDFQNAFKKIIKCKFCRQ
Particulars: Compound concentration 10.0 uM; call rule not given here.

In experiment [4] the target is Somatostatin receptor type 4 (Homo sapiens) (UniProt P31391). Briefly: sst4 Eurofins Bayer panel. To be noted: Compound concentration 10.0 uM.
In experiment [5] the target is Histamine H3 receptor (Homo sapiens) (UniProt Q9Y5N1). The experiment can be described thus: H3 Eurofins Bayer panel. Particulars: Compound concentration 10.0 uM.
In experiment [6] the target is Serine/threonine-protein kinase PRP4 homolog (Homo sapiens) (UniProt Q13523). To be noted: Compound concentration 1000.0 nM.
For experiment [7], the target named is D(2) dopamine receptor (Homo sapiens) (UniProt P14416). The experiment can be described thus: D2L Eurofins Bayer panel. Particulars: Compound concentration 10.0 uM.
Experiment [8] deals with T3, Muscarinic acetylcholine receptor M1 (Homo sapiens) (UniProt P11229).
T3 sequence (whole entry): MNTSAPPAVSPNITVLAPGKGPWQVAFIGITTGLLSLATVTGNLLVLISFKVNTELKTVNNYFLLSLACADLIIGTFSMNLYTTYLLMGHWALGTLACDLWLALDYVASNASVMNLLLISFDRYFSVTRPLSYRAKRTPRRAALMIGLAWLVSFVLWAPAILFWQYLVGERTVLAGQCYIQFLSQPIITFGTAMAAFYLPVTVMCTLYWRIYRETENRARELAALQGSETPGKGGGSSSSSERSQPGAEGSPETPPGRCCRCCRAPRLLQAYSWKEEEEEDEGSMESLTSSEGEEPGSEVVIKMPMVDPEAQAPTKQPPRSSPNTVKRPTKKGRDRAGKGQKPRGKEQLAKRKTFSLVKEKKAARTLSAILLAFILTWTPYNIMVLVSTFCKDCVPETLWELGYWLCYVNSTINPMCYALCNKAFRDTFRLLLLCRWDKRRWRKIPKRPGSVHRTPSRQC
Briefly: M1 Eurofins Bayer panel. Particulars: Compound concentration 10.0 uM.

Experiment [9] has as its target Cannabinoid receptor 1 (Homo sapiens) (UniProt P21554). The experiment can be described thus: CB1 Eurofins Bayer panel. To be noted: Compound concentration 10.0 uM.
The target in experiment [10] is Motilin receptor (Homo sapiens) (UniProt O43193). The experiment can be described thus: Motilin Eurofins Bayer panel. Particulars: Compound concentration 10.0 uM.
The target in experiment [11] is Melanocortin receptor 4 (Homo sapiens) (UniProt P32245). Briefly: MC4 Eurofins Bayer panel. Particulars: Compound concentration 10.0 uM.
Experiment [12] concerns the target T4, 5-hydroxytryptamine receptor 2B (Homo sapiens, UniProt P41595). Briefly: 5-HT2B Eurofins Bayer panel. Particulars: Compound concentration 10.0 uM.
In experiment [13] the target is Prostaglandin E2 receptor EP3 subtype (Homo sapiens) (UniProt P43115). Briefly: EP3 Eurofins Bayer panel. Particulars: Compound concentration 10.0 uM.
The target of experiment [14] is Kappa-type opioid receptor (Homo sapiens, UniProt P41145). The experiment can be described thus: kappa (KOP) Eurofins Bayer panel. Particulars: Compound concentration 10.0 uM.
Experiment [15] has as its target D(1A) dopamine receptor (Homo sapiens) (UniProt P21728). Briefly: D1 Eurofins Bayer panel. Particulars: Compound concentration 10.0 uM.
For experiment [16], the target named is Mu-type opioid receptor (Homo sapiens) (UniProt P35372). The experiment can be described thus: mu (MOP) Eurofins Bayer panel. To be noted: Compound concentration 10.0 uM.
Experiment [17] deals with Beta-2 adrenergic receptor (Homo sapiens) (UniProt P07550). The experiment can be described thus: beta 2 Eurofins Bayer panel. To be noted: Compound concentration 10.0 uM.
Experiment [18] has as its target 5-hydroxytryptamine receptor 6 (Homo sapiens) (UniProt P50406). Briefly: 5-HT6 Eurofins Bayer panel. Particulars: Compound concentration 10.0 uM.
Experiment [19] addresses P2Y purinoceptor 2 (Homo sapiens) (UniProt P41231). Briefly: P2Y2 Eurofins Bayer panel. Particulars: Compound concentration 10.0 uM.
For experiment [20], the target named is Lutropin-choriogonadotropic hormone receptor (Homo sapiens, UniProt P22888). The experiment can be described thus: Cell-based assay (LH Antagonism).
Experiment [21] addresses Delta-type opioid receptor (Homo sapiens) (UniProt P41143). To be noted: Compound concentration 10.0 uM.
The target of experiment [22] is Muscarinic acetylcholine receptor M3 (Homo sapiens) (UniProt P20309). Particulars: Compound concentration 10.0 uM.
Experiment [23] addresses 5-hydroxytryptamine receptor 2A (Homo sapiens, UniProt P28223). Briefly: GPCRScan assay: inhibition of 5-HT2A. Also noted: radioligand conc. used [nm] 1.2 – 2.4, parental cells HEKT.
The target of experiment [24] is 5-hydroxytryptamine receptor 5A (Homo sapiens) (UniProt P47898). To be noted: Compound concentration 10.0 uM.
Experiment [25] deals with 5-hydroxytryptamine receptor 2C (Homo sapiens, UniProt P28335). Briefly: GPCRScan assay: inhibition of 5-HT2C. Also on record: radioligand conc. used [nm] 1.0 – 2.5, parental cells HEK T.
In experiment [26] the target is T4, 5-hydroxytryptamine receptor 2B. The experiment can be described thus: GPCRScan assay: inhibition of 5-HT2B. Also noted: radioligand conc. used [nm] 1.0 – 2.0, parental cells stable HEK.
Experiment [27] addresses Beta-3 adrenergic receptor (Homo sapiens) (UniProt P13945). Particulars: Compound concentration 10.0 uM.

The residual activity is the activity still measured, relative to the control. Broadly, the inhibition is the relative decrease from the control value, in per cent. In general, IC50 refers to the concentration that gives 50% inhibition. Higher therefore signals weaker potency in that assay. One may read the Ki as the equilibrium dissociation constant of an inhibitor or competing ligand from its target.

T4 sequence (P41595 whole entry): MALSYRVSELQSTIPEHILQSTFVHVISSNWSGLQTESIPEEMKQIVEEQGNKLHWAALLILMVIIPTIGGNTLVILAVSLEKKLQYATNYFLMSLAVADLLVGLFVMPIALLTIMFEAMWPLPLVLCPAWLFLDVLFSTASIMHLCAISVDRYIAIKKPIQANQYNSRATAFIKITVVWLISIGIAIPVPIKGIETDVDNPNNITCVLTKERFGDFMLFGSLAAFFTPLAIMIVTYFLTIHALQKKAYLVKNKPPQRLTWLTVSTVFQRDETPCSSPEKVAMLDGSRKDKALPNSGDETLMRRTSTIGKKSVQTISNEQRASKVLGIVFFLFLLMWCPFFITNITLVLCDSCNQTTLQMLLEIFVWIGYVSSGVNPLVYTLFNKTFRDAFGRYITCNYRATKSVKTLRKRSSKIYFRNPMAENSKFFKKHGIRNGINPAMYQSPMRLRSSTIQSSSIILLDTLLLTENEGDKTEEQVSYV
Kappa-type opioid receptor, sequence (P41145 whole entry): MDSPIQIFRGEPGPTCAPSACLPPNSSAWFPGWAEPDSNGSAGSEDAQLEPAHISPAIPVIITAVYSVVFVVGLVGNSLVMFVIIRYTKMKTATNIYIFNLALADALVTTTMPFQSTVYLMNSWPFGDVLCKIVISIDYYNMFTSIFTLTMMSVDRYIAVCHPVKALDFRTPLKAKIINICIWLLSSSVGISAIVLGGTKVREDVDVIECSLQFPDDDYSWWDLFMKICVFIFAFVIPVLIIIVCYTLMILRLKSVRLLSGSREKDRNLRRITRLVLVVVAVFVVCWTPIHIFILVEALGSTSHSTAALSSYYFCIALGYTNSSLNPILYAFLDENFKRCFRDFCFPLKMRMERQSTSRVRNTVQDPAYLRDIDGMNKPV
Histamine H3 receptor (Homo sapiens), sequence (Q9Y5N1 whole entry): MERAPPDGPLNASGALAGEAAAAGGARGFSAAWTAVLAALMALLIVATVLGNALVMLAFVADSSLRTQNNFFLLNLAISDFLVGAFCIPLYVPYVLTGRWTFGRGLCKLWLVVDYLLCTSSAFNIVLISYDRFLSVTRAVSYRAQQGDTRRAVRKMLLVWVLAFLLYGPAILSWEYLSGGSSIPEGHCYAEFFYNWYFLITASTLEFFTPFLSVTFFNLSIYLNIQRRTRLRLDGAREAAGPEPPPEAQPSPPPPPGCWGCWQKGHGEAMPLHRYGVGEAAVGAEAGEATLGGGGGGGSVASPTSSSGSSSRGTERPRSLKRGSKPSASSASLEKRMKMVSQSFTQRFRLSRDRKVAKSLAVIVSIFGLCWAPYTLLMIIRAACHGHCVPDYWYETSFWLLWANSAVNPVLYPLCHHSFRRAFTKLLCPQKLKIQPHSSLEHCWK
Beta-2 adrenergic receptor (Homo sapiens), sequence (P07550 whole entry, looked up): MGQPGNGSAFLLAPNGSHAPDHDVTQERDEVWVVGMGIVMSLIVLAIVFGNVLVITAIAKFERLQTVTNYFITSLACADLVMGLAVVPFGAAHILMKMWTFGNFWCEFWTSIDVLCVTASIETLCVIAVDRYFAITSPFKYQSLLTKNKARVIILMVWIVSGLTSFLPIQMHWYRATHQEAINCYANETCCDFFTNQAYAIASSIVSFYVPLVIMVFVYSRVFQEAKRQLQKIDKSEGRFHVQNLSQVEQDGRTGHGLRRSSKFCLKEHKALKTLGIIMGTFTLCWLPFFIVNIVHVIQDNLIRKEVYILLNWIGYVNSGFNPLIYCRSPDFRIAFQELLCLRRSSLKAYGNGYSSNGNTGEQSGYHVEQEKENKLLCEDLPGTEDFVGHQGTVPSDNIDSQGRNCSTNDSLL
Cannabinoid receptor 1 (Homo sapiens), sequence (P21554 whole entry): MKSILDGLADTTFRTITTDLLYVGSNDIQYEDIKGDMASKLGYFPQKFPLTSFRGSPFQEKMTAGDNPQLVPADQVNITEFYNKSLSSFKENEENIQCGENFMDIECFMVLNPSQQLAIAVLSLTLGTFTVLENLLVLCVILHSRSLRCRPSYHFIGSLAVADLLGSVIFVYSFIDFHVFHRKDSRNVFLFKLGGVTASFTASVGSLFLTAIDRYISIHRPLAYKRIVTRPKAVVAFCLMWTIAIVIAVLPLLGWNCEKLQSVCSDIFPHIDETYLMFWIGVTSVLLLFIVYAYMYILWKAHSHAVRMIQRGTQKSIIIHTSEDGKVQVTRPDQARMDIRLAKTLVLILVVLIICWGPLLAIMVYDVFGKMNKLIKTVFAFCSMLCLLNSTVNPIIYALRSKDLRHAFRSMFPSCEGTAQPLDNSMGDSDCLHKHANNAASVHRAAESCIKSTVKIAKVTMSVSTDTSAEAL
Serine/threonine-protein kinase PRP4 homolog (Homo sapiens), sequence (Q13523 whole entry): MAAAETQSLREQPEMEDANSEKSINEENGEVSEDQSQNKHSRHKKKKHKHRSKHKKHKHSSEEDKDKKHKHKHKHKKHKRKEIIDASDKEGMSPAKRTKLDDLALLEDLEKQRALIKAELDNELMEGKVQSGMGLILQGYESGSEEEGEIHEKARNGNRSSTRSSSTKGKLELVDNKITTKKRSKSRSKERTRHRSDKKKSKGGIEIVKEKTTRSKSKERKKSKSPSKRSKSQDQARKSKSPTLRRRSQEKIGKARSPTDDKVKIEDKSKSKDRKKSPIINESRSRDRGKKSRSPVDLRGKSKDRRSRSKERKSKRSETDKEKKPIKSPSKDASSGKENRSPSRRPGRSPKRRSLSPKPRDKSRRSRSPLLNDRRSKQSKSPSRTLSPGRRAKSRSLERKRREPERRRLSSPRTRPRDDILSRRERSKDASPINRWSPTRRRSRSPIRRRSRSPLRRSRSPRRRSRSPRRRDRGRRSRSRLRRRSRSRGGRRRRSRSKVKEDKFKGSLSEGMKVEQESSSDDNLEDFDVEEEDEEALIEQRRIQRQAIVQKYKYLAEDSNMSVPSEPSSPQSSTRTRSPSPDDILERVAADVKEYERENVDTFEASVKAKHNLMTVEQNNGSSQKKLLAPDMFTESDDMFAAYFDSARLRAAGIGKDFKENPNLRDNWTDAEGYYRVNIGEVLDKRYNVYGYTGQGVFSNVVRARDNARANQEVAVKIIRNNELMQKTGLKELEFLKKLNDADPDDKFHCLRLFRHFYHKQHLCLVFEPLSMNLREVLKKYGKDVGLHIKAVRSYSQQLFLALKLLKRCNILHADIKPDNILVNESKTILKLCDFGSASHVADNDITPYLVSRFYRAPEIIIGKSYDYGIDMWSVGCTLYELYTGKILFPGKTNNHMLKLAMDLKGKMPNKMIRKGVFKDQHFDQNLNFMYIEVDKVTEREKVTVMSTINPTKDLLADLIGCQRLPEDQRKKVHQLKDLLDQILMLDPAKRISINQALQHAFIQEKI
Prostaglandin E2 receptor EP3 subtype (Homo sapiens), sequence (P43115 whole entry): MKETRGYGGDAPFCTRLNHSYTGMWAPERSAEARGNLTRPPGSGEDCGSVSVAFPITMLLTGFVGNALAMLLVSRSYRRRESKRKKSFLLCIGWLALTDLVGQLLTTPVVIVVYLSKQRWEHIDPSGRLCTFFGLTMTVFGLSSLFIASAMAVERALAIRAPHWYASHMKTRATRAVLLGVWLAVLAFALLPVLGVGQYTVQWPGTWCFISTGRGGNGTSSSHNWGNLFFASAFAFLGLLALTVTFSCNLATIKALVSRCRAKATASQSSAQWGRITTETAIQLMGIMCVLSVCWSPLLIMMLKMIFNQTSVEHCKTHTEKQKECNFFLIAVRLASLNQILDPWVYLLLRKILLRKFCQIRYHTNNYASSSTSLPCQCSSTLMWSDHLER
Melanocortin receptor 4 (Homo sapiens), sequence (P32245 whole entry): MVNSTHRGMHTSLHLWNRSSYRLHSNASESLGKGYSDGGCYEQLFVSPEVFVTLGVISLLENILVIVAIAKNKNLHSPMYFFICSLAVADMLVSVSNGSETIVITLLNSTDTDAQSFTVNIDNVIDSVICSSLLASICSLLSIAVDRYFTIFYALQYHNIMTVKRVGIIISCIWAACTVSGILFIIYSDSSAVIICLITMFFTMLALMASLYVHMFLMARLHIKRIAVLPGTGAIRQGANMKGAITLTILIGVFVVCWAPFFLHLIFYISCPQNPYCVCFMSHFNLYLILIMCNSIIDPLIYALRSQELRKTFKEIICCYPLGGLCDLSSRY
Mu-type opioid receptor (Homo sapiens), sequence (P35372 whole entry): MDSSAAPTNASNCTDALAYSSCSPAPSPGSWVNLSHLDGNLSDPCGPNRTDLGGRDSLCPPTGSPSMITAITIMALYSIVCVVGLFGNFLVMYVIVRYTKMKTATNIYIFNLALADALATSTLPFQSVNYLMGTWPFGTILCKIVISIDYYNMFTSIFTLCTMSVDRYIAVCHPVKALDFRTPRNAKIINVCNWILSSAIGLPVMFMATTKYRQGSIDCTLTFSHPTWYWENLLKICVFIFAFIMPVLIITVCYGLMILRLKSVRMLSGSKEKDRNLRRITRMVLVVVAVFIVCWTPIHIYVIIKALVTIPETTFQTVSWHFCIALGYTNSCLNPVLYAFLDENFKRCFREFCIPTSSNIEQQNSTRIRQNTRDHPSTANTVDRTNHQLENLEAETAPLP
D(2) dopamine receptor (Homo sapiens), sequence (P14416 whole entry): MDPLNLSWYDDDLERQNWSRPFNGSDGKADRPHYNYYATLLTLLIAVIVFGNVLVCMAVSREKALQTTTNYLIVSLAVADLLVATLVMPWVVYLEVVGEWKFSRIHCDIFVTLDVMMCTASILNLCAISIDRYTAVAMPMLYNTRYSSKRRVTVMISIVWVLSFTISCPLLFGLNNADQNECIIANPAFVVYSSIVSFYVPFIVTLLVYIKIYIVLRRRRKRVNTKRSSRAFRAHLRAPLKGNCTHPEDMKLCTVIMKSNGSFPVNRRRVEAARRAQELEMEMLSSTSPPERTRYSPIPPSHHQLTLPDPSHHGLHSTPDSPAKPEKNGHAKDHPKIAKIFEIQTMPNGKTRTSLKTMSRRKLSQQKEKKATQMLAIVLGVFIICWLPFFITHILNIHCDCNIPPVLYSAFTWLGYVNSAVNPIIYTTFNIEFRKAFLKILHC

For the compound `O=C(Nc1cnc(Oc2ccc(F)cc2)nc1)N1CCc2ncccc2[C@@H]1c1ccc(F)cc1` [BAY-899], the Activation (% of control) is -2% in [1]; 23% in experiment [4]; 38% in experiment [5]; -1% in experiment [7]; 1% in experiment [8]; 52% in experiment [9]. Besides, the Activation (% of control) in [10] was -1%; in [11], -2%; in experiment [12], 1%; in experiment [13], -1%; in [14], 56%; in experiment [15], -1%. Also, the Activation (% of control) in experiment [16] was 56%; in experiment [17], -3%; in [18], -1%; in experiment [19], -1%. Further, the Inhibition (% of control) in experiment [1] was -16%; in [4] it was 6%; in [5], -19%; in experiment [7] it was 67%; in experiment [8], 32%; in [9], 4%. In addition, the Inhibition (% of control) was 28% in experiment [10]; 11% in experiment [11]; 18% in experiment [12]; -5% in [13]; -10% in experiment [14]; 15% in experiment [15]. Further, the Inhibition (% of control) worked out at 8% in experiment [16], 26% in experiment [17], 12% in experiment [18] and 8% in [19]. The figures for the residual activity in [2] and in experiment [6] were 100% and 90%, respectively. Also, the inhibition in experiment [3] was -8.97%.
For `O=C(Nc1ccc(Oc2ccc(F)cc2)cc1)N1CCc2ncccc2[C@H]1c1ccc(F)cc1` [BAY-897], the IC50 in experiment [20] is on record as > 16 µM (not active). The inhibition in [3] was -3.56%; in experiment [21], 32.7%; in experiment [22], -3.47%; in [24], 7.18%; in [27] it was 29.4%. The residual activity in experiment [6] was 100%. The Ki in experiment [23] is 3.67 µM; in [25], 1.08 µM; in experiment [26] it was 5.25 µM.
